According to patent US4774381A, “Herbicide resistant tobacco” (E. I. Du Pont de Nemours and Company, priority 1985, dated 1988):

Legend:
[1] = biological target: T1, acetolactate synthase (ALS), Isolate 7 (+/+) extract (Nicotiana tabacum, UniProt P09114); test: ALS activity assay in cell extracts; assay type: biochemical; details: read-out: Uninhibited activity (%) in the Presence of Chlorsulfuron
T1 construct: ALS activity was then assayed in extracts prepared from these cell suspension cultures; endogenous in cells; host or cells: N. tabacum cv; Xanthi cell suspension cultures (H1 parental haploid line; +/+ segregants), 0-50% ammonium sulfate fraction of the extract
T1 sequence (P09114 92-664): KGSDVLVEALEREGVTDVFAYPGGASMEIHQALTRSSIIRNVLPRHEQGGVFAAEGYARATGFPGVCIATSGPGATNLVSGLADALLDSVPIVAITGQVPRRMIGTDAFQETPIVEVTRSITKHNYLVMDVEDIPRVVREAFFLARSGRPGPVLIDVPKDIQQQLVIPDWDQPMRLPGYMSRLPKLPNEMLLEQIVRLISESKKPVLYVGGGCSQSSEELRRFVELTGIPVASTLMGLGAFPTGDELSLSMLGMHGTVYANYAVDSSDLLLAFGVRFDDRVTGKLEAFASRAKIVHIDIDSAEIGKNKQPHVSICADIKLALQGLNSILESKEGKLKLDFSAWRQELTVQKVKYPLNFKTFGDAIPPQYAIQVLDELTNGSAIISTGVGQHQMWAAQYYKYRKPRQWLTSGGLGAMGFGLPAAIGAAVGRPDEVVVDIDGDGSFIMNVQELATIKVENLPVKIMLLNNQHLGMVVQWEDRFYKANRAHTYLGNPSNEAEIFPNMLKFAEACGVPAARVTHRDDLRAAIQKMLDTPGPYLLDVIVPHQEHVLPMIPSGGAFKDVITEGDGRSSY
Description: (§1) Cell suspension cultures of normal (H1) and homozygous mutant (Isolate 16) cell lines were washed in C1 liquid medium. After washing, cells were extracted in a 100 mM potassium phosphate buffer (pH 7.5) containing 0.5 mM MgCl2, 1 mM sodium pyruvate, 0.5 mM thiamine pyrophosphate, 10 micromolar flavine-adenine dinucleotide (FAD) and 10 percent (by volume) glycerol. Polyclar AT (BDH Chemicals Ltd) was added to a final concentration of 250 mg per gram fresh weight of tissue. After centrifugation at 27,000xg for 15 minutes at 4°, an equal volume of a saturated solution of amminium sulfate was added to the supernatant fraction. The resultant precipitate (representing a 0 to 50 percent ammonium sulfate fraction) was redissolved in 100 mM potassium phosphate buffer (pH 7.5) containing 0.5 mM MgCl2, 1 mM sodium pyruvate, and salts were removed by passage through a Sephadex G-25 (Pharmacia PD-10) column.
ALS activity was assayed in a total volume of 500 microliters containing 100 microliters of the column eluate, 65 mM potassium phosphate buffer (pH 7.5) containing 10 mM MgCl2, 40 mM sodium pyruvate, 250 micromolar thiamine pyrophosphate, 23 micromolar FAD, and 1, 5, 10, 50, 100, 500 or 1000 ppb chlorsulfuron or sulfometuron-methyl. […] Acetoin content was then measured by a modification of the procedure described by Westerfield, J. Biol. Chem. 161:495 (1945). […] Tubes were then centrifuged, and the optical density was read at 530 nm. Background optical densities, which were subtracted from the optical density values of the reactions, were determined for each extract from parallel assays to which the enzyme extract was added after the addition of 6N H2 SO4. Protein concentrations were measured with Bio-Rad Protein Assay reagent with bovine serum albumin as a standard. […]
Responses to chlorsulfuron were determined for ALS activities in extracts of cells suspension cultures derived from nine individuals that differed with resepct to the S4 mutation. […] Callus and plant phenotypes were determined by growth responses of cell cultures and seedlings, respectively, on herbicide-supplemented medium. […]

[2] = test system: acetolactate synthase (ALS), Isolate 24 (S4/+) extract; test: ALS activity assay in cell extracts; assay type: biochemical, Nicotiana tabacum
Description: as §1
(§2) ALS activity was assayed in a total volume of 500 microliters containing 100 microliters of the column eluate, 65 mM potassium phosphate buffer (pH 7.5) containing 10 mM MgCl2, 40 mM sodium pyruvate, 250 micromolar thiamine pyrophosphate, 23 micromolar FAD, and 1, 5, 10, 50, 100, 500 or 1000 ppb chlorsulfuron or sulfometuron-methyl. After incubation at 30° for 90 minutes, 250 microliters of 6N H2 SO4 was added to each assay tube, and the tubes were incubated at 55° for 10 minutes to terminate the enzymatic reaction and achieve complete conversion of acetolactate to acetoin. Acetoin content was then measured by a modification of the procedure described by Westerfield, J. Biol. Chem. 161:495 (1945). To each tube was added sequentially 100 microliters 50 percent NaOH, 150 microliters 0.5 percent creatine, and 150 microliters 5 percent alpha-napthol (in 2.5N NaOH). Color development was accelerated by incubation at 55° for 10 minutes. Tubes were then centrifuged, and the optical density was read at 530 nm. Background optical densities, which were subtracted from the optical density values of the reactions, were determined for each extract from parallel assays to which the enzyme extract was added after the addition of 6N H2 SO4. Protein concentrations were measured with Bio-Rad Protein Assay reagent with bovine serum albumin as a standard. Data points and specific activities, which are set forth below and in FIG. 2, represent the average values of at least three independent determinations. ALS activities are presented in FIG. 2 as percent activity in the absence of herbicide.
(§3) Responses to chlorsulfuron were determined for ALS activities in extracts of cells suspension cultures derived from nine individuals that differed with resepct to the S4 mutation. As described above, these individuals were produced by self-fertilization of an S4/+ heterozygote, and their genotypes were established by means of progeny analysis. Callus and plant phenotypes were determined by growth responses of cell cultures and seedlings, respectively, on herbicide-supplemented medium. […] In contrast, all individuals homozygous for the S4 mutation contained a highly resistant form of the enzyme. […] The correlation between both callus and plant phenotype and the response of ALS activity in vitro to the herbicide is both absolute and quantitative.

[3] = test system: acetolactate synthase (ALS), Isolate 9 (S4/+) extract; test: ALS activity assay in cell extracts; assay type: biochemical, Nicotiana tabacum
Description: as §1, §2, §3

[4] = test system: acetolactate synthase (ALS), Isolate 1 (+/+) extract; test: ALS activity assay in cell extracts; assay type: biochemical, Nicotiana tabacum
Description: as §1, §2, §3

[5] = test system: acetolactate synthase (ALS), Isolate 30 (S4/S4) extract; test: ALS activity assay in cell extracts; assay type: biochemical, Nicotiana tabacum
Description: as §1, §2, §3

[6] = test system: acetolactate synthase (ALS), Isolate 27 (S4/S4) extract; test: ALS activity assay in cell extracts; assay type: biochemical, Nicotiana tabacum
Description: as §1, §2, §3

[7] = biological target: T2, acetolactate synthase (ALS), H1 extract (Nicotiana tabacum, UniProt P09114); test: ALS activity assay in cell extracts; assay type: biochemical
T2 construct: ALS activity was then assayed in extracts prepared from these cell suspension cultures; endogenous in cells; host or cells: N. tabacum cv; Xanthi cell suspension cultures (H1 parental haploid line; +/+ segregants), 0-50% ammonium sulfate fraction of the extract
T2 sequence (P09114 92-664): T1 sequence (P09114 92-664)
Description: as §1, §2

[8] = test system: Isolate 10 (S4/+) callus culture; test: Callus growth on chlorsulfuron-supplemented medium; assay type: cell-based, Nicotiana tabacum; details: chlorsulfuron at 5 ppb (14 nM); also: key: Callus cultures capable of growth on this medium are designated R (resistant); S denotes sensitive callus cultures that did not grow in the presence of the herbicide
Description: (§4) Table 7, below, indicates sensitivity to chlorsulfuron of ALS activities in progeny of an S4/+ heterozygote. Data are presented as percent of ALS activity in the absence of chlorsulfuron. Each number represents the average of at least three independent experiments. Callus cultures initiated from the individual isolates were tested for growth on medium supplemented with chlorsulfuron at 5 ppb (14 nM).

[9] = test system: Isolate 23 (S4/+) callus culture; test: Callus growth on chlorsulfuron-supplemented medium; assay type: cell-based, Nicotiana tabacum; details: chlorsulfuron at 5 ppb (14 nM); also: key: Callus cultures capable of growth on this medium are designated R (resistant); S denotes sensitive callus cultures that did not grow in the presence of the herbicide
Description: as §4

[10] = test system: Isolate 16 (S4/S4) callus culture; test: Callus growth on chlorsulfuron-supplemented medium; assay type: cell-based, Nicotiana tabacum; details: chlorsulfuron at 5 ppb (14 nM); also: key: Callus cultures capable of growth on this medium are designated R (resistant); S denotes sensitive callus cultures that did not grow in the presence of the herbicide
Description: as §4

Compound: COc1nc(C)nc(NC(=O)NS(=O)(=O)c2ccccc2Cl)n1 [Chlorsulfuron, chlorsulfuron]
- remaining ALS activity (% of uninhibited) at 0.01 ppm ([1]; 10 ppb): 36%
- remaining ALS activity (% of uninhibited) at 0.03 ppm ([1]; 30 ppb): 22%
- remaining ALS activity (% of uninhibited) at 0.1 ppm ([1]; 100 ppb): 16%
- Uninhibited activity (%) in the Presence of Chlorsulfuron ([2]; 10 ppb): 60%
- Uninhibited activity (%) in the Presence of Chlorsulfuron ([2]; 30 ppb): 47%
- Uninhibited activity (%) in the Presence of Chlorsulfuron ([2]; 100 ppb): 41%
- Uninhibited activity (%) in the Presence of Chlorsulfuron ([3]; 10 ppb): 59%
- Uninhibited activity (%) in the Presence of Chlorsulfuron ([3]; 30 ppb): 50%
- Uninhibited activity (%) in the Presence of Chlorsulfuron ([3]; 100 ppb): 42%
- Uninhibited activity (%) in the Presence of Chlorsulfuron ([4]; 10 ppb): 42%
- Uninhibited activity (%) in the Presence of Chlorsulfuron ([4]; 30 ppb): 29%
- Uninhibited activity (%) in the Presence of Chlorsulfuron ([4]; 100 ppb): 23%
- Uninhibited activity (%) in the Presence of Chlorsulfuron ([5]; 10 ppb): 89%
- Uninhibited activity (%) in the Presence of Chlorsulfuron ([5]; 30 ppb): 83%
- Uninhibited activity (%) in the Presence of Chlorsulfuron ([5]; 100 ppb): 81%
- Uninhibited activity (%) in the Presence of Chlorsulfuron ([6]; 10 ppb): 88%
- Uninhibited activity (%) in the Presence of Chlorsulfuron ([6]; 30 ppb): 82%
- Uninhibited activity (%) in the Presence of Chlorsulfuron ([6]; 100 ppb): 79%
- remaining ALS activity (% of uninhibited) at 0.01 ppm ([7]; 10 ppb, Isolate H1 (+), read-out: Uninhibited activity (%) in the Presence of Chlorsulfuron): 40%
- remaining ALS activity (% of uninhibited) at 0.03 ppm ([7]; 30 ppb, Isolate H1 (+), read-out: Uninhibited activity (%) in the Presence of Chlorsulfuron): 23%
- remaining ALS activity (% of uninhibited) at 0.1 ppm ([7]; 100 ppb, Isolate H1 (+), read-out: Uninhibited activity (%) in the Presence of Chlorsulfuron): 18%
- IC50 ([7]; H1 cell line extract, read-out: concentration inhibiting ALS activity 50 percent (converted)): ~14 nM
- Callus Phenotype [8]: R
- Callus Phenotype [9]: R
- Callus Phenotype [10]: R
